Laboratory results as given in article PMC6337261, “Short Peptides with Uncleavable Peptide Bond Mimetics as Photoactivatable Caspase-3 Inhibitors” (Molecules, 2019).

Legend:
[1] = test system: caspase-3; assay: Gel-based competitive ABPP on recombinant caspase-3; format: biochemical; conditions: 10 μM compound, PBS with 1 mM DTT, fluorescent ABP read-out on gel
Method: To check whether our probes function as inhibitors, competitive ABPP [28] was performed. Recombinant caspase-3 was incubated with probes 9a–10c, 11a and 12a with or without irradiation at 365 nm, followed by labeling of residually active caspase-3 with the fluorescent, caspase-directed activity-based probe (ABP) SV149, a tetramethylrhodamine derivative of KMB-01 [29]. Caspase activity itself was not affected by UV irradiation, as shown by bands of equal intensity with and without UV light (Figure 2A). […] To confirm inhibition, we also performed substrate cleavage assays using the fluorogenic aminomethyl coumarin substrate Ac-DEVD-AMC. […] Inhibition of active caspases could also be achieved in an apoptotic cell lysate (Figure 2D).
(§1) Caspase-3, produced in E. coli and purified as described before, was reacted in PBS with 1 mM DTT. Samples were combined with the indicated probe and irradiated with a handheld UV lamp at 365 nm for 30 min at room temperature. For competition experiments with ‘pre-activation,’ the indicated probes were irradiated for 30 min prior to addition to caspase-3, and incubated for an additional 30 min. Next, ABP 13 was added (final concentration 1 μM) to label residual caspase-3 activity. The samples were incubated for 30 min at room temperature, after which 1/3rd volume of 4× Laemmli buffer was added. Samples were heated at 95 °C for 2 min and resolved by 15% SDS-PAGE. Gels were scanned using a Typhoon Trio+ fluorescent scanner with excitation at 532 nm and an emission filter of 580 nm. Gel images were processed with ImageJ (background subtraction with rolling ball radius of 50 pixels and automated contrast adjustment).
Figure 2 Inhibition of caspase-3. (A) Competitive activity-based protein profiling (ABPP) experiments using ψ(CH2NH) or triazolo peptide derivatives 9–12 with or without irradiation. Compounds 9a–12a were used at 10 μM final concentration, 9b, 9c, 10b and 10c at 100 μM. Inh = caspase inhibitor biotin-DEVD-AOMK, used at 100 nM concentration. (B) Representative progress curves of fluorescence produced by Ac-DEVD-AMC (50 μM) cleavage by caspase-3, irradiated with or without 10 μM of the indicated compounds. (C) Bar graph of residual caspase-3 activity of replicate experiments (n = 2) of those in (B). (D) Inhibition of executioner’s caspase-3 and -7 in lysates of HEK293 cells, treated with cytochrome c/dATP to induce apoptosis.

[2] = LC-MS analysis of probes before and after UV irradiation; format: physicochemical; conditions: irradiation at 365 nm, gradient 10% to 95% acetonitrile with 0.1% formic acid
Method: (§2) Compounds were irradiated with UV light of 365 nm for 30 min and after removal of the light source added to caspase-3. Residual caspase activity was measured by using a fluorescent caspase ABP as in our previous experiments above.
Although this points towards a cyclization rather than reaction with a water molecule, it is not clear whether it leads to a potent caspase inhibitor. […] Therefore, cyclization seemed improbable, as this would most likely lead to a shift in retention time. We hypothesized that irradiation could potentially lead to oxidation of a very small amount of the ψ(CH2NH) moiety with benzophenone as a photosensitizer, resulting in minute quantities of aldehydes that were not detected on LC-MS, but were sufficient for caspase-3 inhibition. Oxidation of secondary amines under influence of benzophenone has been reported before. […] Note that triazoles cannot undergo this transformation, further explaining their inactivity. The oxidation hypothesis was supported by an experiment in which ψ(CH2NH) peptides 14 and 15, not containing a benzophenone, were irradiated in the presence of 1 eq of spiked-in benzophenone (Figure 3G–I).
All materials were purchased from Sigma Aldrich GmbH (GmbH, Darmstadt, Germany), Carl Roth GmbH + Co. KG (Karlsruhe, Germany), Thermo Fischer Scientific Inc. (Dreieich, Germany), Rapp Polymere GmbH (Tübingen, Germany), Applichem GmbH (Darmstadt, Germany), VWR International GmbH (Darmstadt, Germany), Merck KGaA (Darmstadt, Germany), CreoSalus Inc. (Louisville, KY, USA), and Iris Biotech GmbH (Marktredwitz, Germany) and were used as received, unless otherwise noted. TLC was performed on pre-coated ALUGRAM SIL G plates with detection by a handheld UV lamp (254 nm) and subsequent staining with potassium permanganate, p-anisaldehyde, ninhydrin or cerium ammonium molybdate. LC-MS analysis was performed on a Thermo LCQ Fleet HPLC-MS/MS system using a gradient of 10% to 95% acetonitrile containing 0.1% formic acid. NMR spectra were recorded on a Bruker Avance DRX 400 spectrometer with tetramethylsilane as internal standard. High resolution ESI-FTMS was performed on a Thermo Scientific LTQ Orbitrap Velos Pro mass spectrometer.

[3] = test system: caspase-3; assay: Competitive ABPP with UV pre-activation of the probes; format: biochemical; conditions: compound irradiated at 365 nm for 30 min, light source removed, then added to caspase-3 for 30 min; fluorescent ABP read-out
Method: as §2, §1
(§3) Figure 3 Non-covalent inhibition of caspase-3 by compounds 9 and 10. (A) Fluorescent labeling of caspase-3 by ψ(CH2NH) peptides 9–10 and triazolo peptides 11–12. […] (B) Deconvoluted ESI-MS of caspase-3. (C) Deconvoluted ESI-MS of caspase-3 after incubation with covalent activity-based probe (ABP) 13. Note that the active site, located on the large subunit, is modified. (D) Deconvoluted ESI-MS of caspase-3 after irradiation in the presence of benzophenone ψ(CH2NH) 10a, not resulting in covalent modification. […] (F) Structures of ψ(CH2NH) peptides 14 and 15 without photocrosslinker. (G) UV irradiation of ψ(CH2NH) peptides 14 and 15 in the presence of benzophenone leads to inhibition of caspase-3, as monitored by competitive ABPP. […] Ac-DEVD-aldehyde (100 nM) was used as a control compound, whereas 9a and 10a (10 μM) were irradiated for 10 min and reacted with sodium bisulfite for an additional 20 min before 30 min incubation with caspase-3 and read-out with a fluorescent caspase ABP.

[4] = test system: caspase-3; assay: Competitive ABPP with bisulfite aldehyde quenching; format: biochemical; conditions: 10 μM, irradiated 10 min, reacted with 10 mM NaHSO3 for 20 min, then 30 min with caspase-3, fluorescent ABP read-out
From the text: The presence of a ψ(CH2NH) peptide with benzophenone or UV irradiation alone was not sufficient for inhibition, but all needed to be present to block the caspase-3 active site (Figure 3G,H). We hypothesized that the active species is a peptide aldehyde, formed by oxidation of the ψ(CH2NH) moiety (see also discussion in Section 3). To support this hypothesis, we performed an experiment in which this aldehyde was trapped by sodium bisulfite, forming a sodium bisulfite adduct.
Compounds were incubated with or without irradiation (10 min) in PBS with or without 10 mM NaHSO3 and incubated for another 20 min before addition to caspase-3. After 30 min, ABP 13 was added (final concentration 1 μM) to label residual caspase activity. The samples were incubated for 30 min at room temperature, after which 1/3rd volume of 4× Laemmli buffer was added. Samples were processed in the same way as under Section 4.4.1.
as §3

Hexynoyl-Asp-Glu-Val-Aspψ(CH2NH)-Ala-Bpa-NH2 [10a]
Inhibition of caspase-3 activity (caspase ABP labeling) ([1]; irradiated at 365 nm for 30 min at room temperature): complete inhibition
Inhibition of caspase-3 activity (caspase ABP labeling) ([1]; non-irradiated): no decrease in caspase ABP labeling
Change of probe upon UV irradiation (LC-MS before and after) [2]: did not show obvious changes
Inhibition of caspase-3 after UV pre-activation of compound [3]: still inhibited
Inhibition of caspase-3 by irradiated sample exposed to sodium bisulfite [4]: lose their inhibitory capacity
